According to patent US20010049374A1 (priority 1997, published 2001):

Molecular target: T1, urokinase enzyme Abbokinase (Homo sapiens, UniProt P00749)
T1 construct: purchased Abbott Laboratories, Abbott Park, Ill
Experiment: Determination of urokinase inhibition (Abbokinase, chromogenic substrate S-2444)
Type: biochemical
Details: Inhibitory potency against urokinase; substrate S-2444 at 200 μM, enzyme 2-3 nM, pH 7.4, 405 nm; read-out: IC50
Procedure: Several vials were reconstituted as directed on the vial, aliquoted and stored frozen. The enzyme was further diluted in assay buffer and 10 μl was used in the assay. Enzyme concentration in the assay was 2-3 nM. […] The Spectromax® calculated the reaction rates which were used to calculate percent inhibition of the compounds of this invention versus the reaction rate of the enzyme in the absence of any inhibitor. The Ki's of the inhibitors were calculated from the percent inhibition and previously established Km.

Work on “1,1-Dimethylethyl [4- [[(6-aminoiminomethyl-2-naphthalenyl)amino]carbonyl]phenyl]carbamate [Example 76]” yielded an IC50 of 960 nM.

For “1,1-dimethylethyl [2-[3-[6-(aminoiminomethyl)-2-naphathalenyl]ethynyl]-6-methoxyphenyl]ethyl]carbamate [Example 122]”, the IC50 was 330 nM.

Substance “1,1-dimethylethyl [[4-[[[6-(aminoiminomethyl)-2-naphathalenyl]amino]carbonyl]phenyl]methyl]carbamate [Example 135]” has an IC50 of 1910 nM.

“1-[(7-Aminoiminomethyl-2-methoxy-1-naphthalenyl)oxy]-3-hydroxypropane [Example 10]” gave an IC50 of 3200 nM.

Substance “1-[(7-Aminoiminomethyl-2-methoxy-1-naphthalenyl)oxy]-3-phenylpropane [Example 23]” has an IC50 of 4000 nM.

“1-[(7-aminoiminomethyl-2-methoxy-1-naphthalenyl)oxy]-3-bromopropane [Example 21]” gave an IC50 of 1700 nM.

“2-[(7-Aminoiminomethyl-3-methoxy-1-naphthalenyl)oxy]acetamide [Example 39]” was tested, and the IC50 was 12200 nM.

“3-[(7-Aminoiminomethyl-2-methoxy-1-naphthalenyl)oxy]propene [Example 22]” was tested, and the IC50 was 1700 nM.

“4-Amino-N-[3-(6-aminoiminomethyl-2-naphthalenyl)-2-propynyl]benzamide [Example 36]” was tested, and the IC50 was 1750 nM.

“4-[7-(Aminoiminomethyl)-2-methoxy-1-naphthalenyl]dihydro-2(3H)-furanone [Example 85]” gave an IC50 of 1380 nM.

For “4-[(6-Aminoiminomethyl-2-naphthalenyl)oxy]-N-methylbenzeneacetamide [Example 56]”, the IC50 was 2900 nM.

Substance “4-[[6-(aminoiminomethyl)-2-naphthalenyl]ethynyl]-L-phenylalanine [Example 109]” has an IC50 of 2850 nM.

“4-[[[7-(aminoiminomethyl)-1-(2-pyrimidinylamino)-2-naphthalenyl]oxy]methyl]benzoic acid [Example 134]” showed an IC50 of 64 nM.

“5-[[6-(aminoiminomethyl)-2-naphthalenyl]oxy]pentanoic acid [Example 129]” was tested, and the IC50 was 4840 nM.

Work on “6-(aminoiminomethyl)-4-(3-furanyl)-N-(1H-pyrazol-3-yl)-2-naphthalenecarboxamide [Example 116]” yielded an IC50 of 45 nM.

For “6-(aminoiminomethyl)-4-(3-furanyl)-N-(2-pyridinyl)-2-naphthalenecarboxamide [Example 146]”, the IC50 was 372 nM.

In the case of “6-(aminoiminomethyl)-4-(3-furanyl)-N-(3-pyridinyl)-2-naphthalenecarboxamide [Example 117]”, the IC50 is reported as 278 nM.

“6-(aminoiminomethyl)-4-(3-furanyl)-N-(4-pyridinyl)-2-naphthalenecarboxamide [Example 115]” was tested, and the IC50 was 63 nM.

Substance “6-(aminoiminomethyl)-4-(3-furanyl)-N-[4-(trifluoromethyl)phenyl]-2-naphthalenecarboxamide [Example 114]” has an IC50 of 344 nM.

“6-(aminoiminomethyl)-4-(3-furanyl)-N-phenyl-2-naphthalenecarboxamide [Example 152]” showed an IC50 of 83 nM.

For “6-(aminoiminomethyl)-4-[1-(methylsulfonyl)-1H-pyrazol-4-yl]-N-phenyl-2-naphthalenecarboxamide [Example 153]”, the IC50 was 877 nM.

Work on “6-(aminoiminomethyl)-4-[5-(ethylsulfonyl)-3-furanyl]-N-phenyl-2-naphthalenecarboxamide [Example 227]” yielded an IC50 of 15 nM.

“6-(aminoiminomethyl)-4-[5-(ethylthio)-3-furanyl]-N-phenyl-2-naphthalenecarboxamide [Example 200]” gave an IC50 of 37 nM.

“6-(aminoiminomethyl)-4-[5-(methoxymethyl)-3-furanyl]-N-phenyl-2-naphthalenecarboxamide [Example 230]” showed an IC50 of 103 nM.

“6-(aminoiminomethyl)-4-[5-(methylsulfonyl)-3-furanyl]-N-phenyl-2-naphthalenecarboxamide [Example 231]” was tested, and the IC50 was 15 nM.
